Source: ChEMBL document CHEMBL1154040, “Synthesis and evaluation of novel F-18 labeled fluoroarylvaline derivatives: potential PET imaging agents for tumor detection” (Bioorg Med Chem Lett, 2009)

Tested on: Brain
Test: Biodistribution in S180 tumor-bearing KM mouse brain assessed per gram of tissue at 240 to 370 kBq, iv after 15 mins
Format: ADME, organism-based
Conditions: in vivo, 0.25 h

| SMILES | Drug uptake [%ID] |
| --- | --- |
| OC[C@H]1O[C@@H](O)[C@H]([18F])[C@@H](O)[C@@H]1O [FLUDEOXYGLUCOSE-F18] | 2.63 |

Tested on: Brain
Test: Biodistribution in S180 tumor-bearing KM mouse brain assessed per gram of tissue at 240 to 370 kBq, iv after 5 mins
Format: ADME, organism-based
Conditions: in vivo

| SMILES | Drug uptake [%ID] |
| --- | --- |
| OC[C@H]1O[C@@H](O)[C@H]([18F])[C@@H](O)[C@@H]1O [FLUDEOXYGLUCOSE-F18] | 2.4 |

Tested on: Spleen
Test: Biodistribution in S180 tumor-bearing KM mouse spleen assessed per gram of tissue at 240 to 370 kBq, iv after 60 mins
Format: ADME, organism-based
Conditions: in vivo, 1 h

| SMILES | Drug uptake [%ID] |
| --- | --- |
| OC[C@H]1O[C@@H](O)[C@H]([18F])[C@@H](O)[C@@H]1O [FLUDEOXYGLUCOSE-F18] | 0.83 |

Tested on: Spleen
Test: Biodistribution in S180 tumor-bearing KM mouse spleen assessed per gram of tissue at 240 to 370 kBq, iv after 15 mins
Format: ADME, organism-based
Conditions: in vivo, 0.25 h

| SMILES | Drug uptake [%ID] |
| --- | --- |
| OC[C@H]1O[C@@H](O)[C@H]([18F])[C@@H](O)[C@@H]1O [FLUDEOXYGLUCOSE-F18] | 0.95 |

Tested on: Spleen
Test: Biodistribution in S180 tumor-bearing KM mouse spleen assessed per gram of tissue at 240 to 370 kBq, iv after 5 mins
Format: ADME, organism-based
Conditions: in vivo

| SMILES | Drug uptake [%ID] |
| --- | --- |
| OC[C@H]1O[C@@H](O)[C@H]([18F])[C@@H](O)[C@@H]1O [FLUDEOXYGLUCOSE-F18] | 1.31 |

Tested on: Muscle tissue
Test: Biodistribution in S180 tumor-bearing KM mouse muscle assessed per gram of tissue at 240 to 370 kBq, iv after 120 mins
Format: ADME, organism-based
Conditions: in vivo, 2 h

| SMILES | Drug uptake [%ID] |
| --- | --- |
| OC[C@H]1O[C@@H](O)[C@H]([18F])[C@@H](O)[C@@H]1O [FLUDEOXYGLUCOSE-F18] | 0.78 |

Tested on: Muscle tissue
Test: Biodistribution in S180 tumor-bearing KM mouse muscle assessed per gram of tissue at 240 to 370 kBq, iv after 60 mins
Format: ADME, organism-based
Conditions: in vivo, 1 h

| SMILES | Drug uptake [%ID] |
| --- | --- |
| OC[C@H]1O[C@@H](O)[C@H]([18F])[C@@H](O)[C@@H]1O [FLUDEOXYGLUCOSE-F18] | 0.97 |

Tested on: Muscle tissue
Test: Biodistribution in S180 tumor-bearing KM mouse muscle assessed per gram of tissue at 240 to 370 kBq, iv after 15 mins
Format: ADME, organism-based
Conditions: in vivo, 0.25 h

| SMILES | Drug uptake [%ID] |
| --- | --- |
| OC[C@H]1O[C@@H](O)[C@H]([18F])[C@@H](O)[C@@H]1O [FLUDEOXYGLUCOSE-F18] | 1.14 |

Tested on: Muscle tissue
Test: Biodistribution in S180 tumor-bearing KM mouse muscle assessed per gram of tissue at 240 to 370 kBq, iv after 5 mins
Format: ADME, organism-based
Conditions: in vivo

| SMILES | Drug uptake [%ID] |
| --- | --- |
| OC[C@H]1O[C@@H](O)[C@H]([18F])[C@@H](O)[C@@H]1O [FLUDEOXYGLUCOSE-F18] | 1.56 |

Tested on: Kidney
Test: Biodistribution in S180 tumor-bearing KM mouse kidney assessed per gram of tissue at 240 to 370 kBq, iv after 120 mins
Format: ADME, organism-based
Conditions: in vivo, 2 h

| SMILES | Drug uptake [%ID] |
| --- | --- |
| OC[C@H]1O[C@@H](O)[C@H]([18F])[C@@H](O)[C@@H]1O [FLUDEOXYGLUCOSE-F18] | 0.25 |

Tested on: Kidney
Test: Biodistribution in S180 tumor-bearing KM mouse kidney assessed per gram of tissue at 240 to 370 kBq, iv after 60 mins
Format: ADME, organism-based
Conditions: in vivo, 1 h

| SMILES | Drug uptake [%ID] |
| --- | --- |
| OC[C@H]1O[C@@H](O)[C@H]([18F])[C@@H](O)[C@@H]1O [FLUDEOXYGLUCOSE-F18] | 0.54 |

Tested on: Kidney
Test: Biodistribution in S180 tumor-bearing KM mouse kidney assessed per gram of tissue at 240 to 370 kBq, iv after 30 mins
Format: ADME, organism-based
Conditions: in vivo, 0.5 h

| SMILES | Drug uptake [%ID] |
| --- | --- |
| OC[C@H]1O[C@@H](O)[C@H]([18F])[C@@H](O)[C@@H]1O [FLUDEOXYGLUCOSE-F18] | 0.61 |

Tested on: Kidney
Test: Biodistribution in S180 tumor-bearing KM mouse kidney assessed per gram of tissue at 240 to 370 kBq, iv after 15 mins
Format: ADME, organism-based
Conditions: in vivo, 0.25 h

| SMILES | Drug uptake [%ID] |
| --- | --- |
| OC[C@H]1O[C@@H](O)[C@H]([18F])[C@@H](O)[C@@H]1O [FLUDEOXYGLUCOSE-F18] | 1.04 |

Tested on: Lung
Test: Biodistribution in S180 tumor-bearing KM mouse lung assessed per gram of tissue at 240 to 370 kBq, iv after 120 mins
Format: ADME, organism-based
Conditions: in vivo, 2 h

| SMILES | Drug uptake [%ID] |
| --- | --- |
| OC[C@H]1O[C@@H](O)[C@H]([18F])[C@@H](O)[C@@H]1O [FLUDEOXYGLUCOSE-F18] | 0.52 |

Tested on: Lung
Test: Biodistribution in S180 tumor-bearing KM mouse lung assessed per gram of tissue at 240 to 370 kBq, iv after 15 mins
Format: ADME, organism-based
Conditions: in vivo, 0.25 h

| SMILES | Drug uptake [%ID] |
| --- | --- |
| OC[C@H]1O[C@@H](O)[C@H]([18F])[C@@H](O)[C@@H]1O [FLUDEOXYGLUCOSE-F18] | 0.77 |

Tested on: Liver
Test: Biodistribution in S180 tumor-bearing KM mouse liver assessed per gram of tissue at 240 to 370 kBq, iv after 120 mins
Format: ADME, organism-based
Conditions: in vivo, 2 h

| SMILES | Drug uptake [%ID] |
| --- | --- |
| OC[C@H]1O[C@@H](O)[C@H]([18F])[C@@H](O)[C@@H]1O [FLUDEOXYGLUCOSE-F18] | 0.2 |

Tested on: Liver
Test: Biodistribution in S180 tumor-bearing KM mouse liver assessed per gram of tissue at 240 to 370 kBq, iv after 30 mins
Format: ADME, organism-based
Conditions: in vivo, 0.5 h

| SMILES | Drug uptake [%ID] |
| --- | --- |
| OC[C@H]1O[C@@H](O)[C@H]([18F])[C@@H](O)[C@@H]1O [FLUDEOXYGLUCOSE-F18] | 0.23 |

Tested on: Liver
Test: Biodistribution in S180 tumor-bearing KM mouse liver assessed per gram of tissue weight at 240 to 370 kBq, iv after 15 mins
Format: ADME, organism-based
Conditions: in vivo, 0.25 h

| SMILES | Drug uptake [%ID] |
| --- | --- |
| OC[C@H]1O[C@@H](O)[C@H]([18F])[C@@H](O)[C@@H]1O [FLUDEOXYGLUCOSE-F18] | 0.47 |

Tested on: Liver
Test: Biodistribution in S180 tumor-bearing KM mouse liver assessed per gram of tissue weight at 240 to 370 kBq, iv after 5 mins
Format: ADME, organism-based
Conditions: in vivo

| SMILES | Drug uptake [%ID] |
| --- | --- |
| OC[C@H]1O[C@@H](O)[C@H]([18F])[C@@H](O)[C@@H]1O [FLUDEOXYGLUCOSE-F18] | 1.35 |

Tested on: Heart
Test: Biodistribution in S180 tumor-bearing KM mouse heart assessed per gram of tissue weight at 240 to 370 kBq, iv after 120 mins
Format: ADME, organism-based
Conditions: in vivo, 2 h

| SMILES | Drug uptake [%ID] |
| --- | --- |
| OC[C@H]1O[C@@H](O)[C@H]([18F])[C@@H](O)[C@@H]1O [FLUDEOXYGLUCOSE-F18] | 6.27 |

Tested on: Heart
Test: Biodistribution in S180 tumor-bearing KM mouse heart assessed per gram of tissue weight at 240 to 370 kBq, iv after 60 mins
Format: ADME, organism-based
Conditions: in vivo, 1 h

| SMILES | Drug uptake [%ID] |
| --- | --- |
| OC[C@H]1O[C@@H](O)[C@H]([18F])[C@@H](O)[C@@H]1O [FLUDEOXYGLUCOSE-F18] | 3.24 |
